# According to patent US20110256565A1, “METHODS FOR DIAGNOSIS AND TREATMENT OF NEURODEGENERATIVE DISEASES OR DISORDERS” (priority 2008, published 2011):
# Key:
# human erythrocytes = details: incubation time ~2 min, 37° C., read-out: LC50 (concentration to kill 50% of the cells); cited from earlier work
# [1] = tested on: fibroblasts from FAD patients with pathogenic mutations in PS1 and from sporadic AD (SAD) patients; test: Cinnamycin sensitivity, Live/Dead assay in patient fibroblasts; assay type: cell-based, human; details: 1 μM cinnamycin for 10 min at 37° C.; fibroblasts from SAD patients (FIG. 43)
# Method: FIG. 43. Cinnamycin sensitivity in fibroblasts from FAD patients with pathogenic mutations in PS1 (PS1) and from sporadic AD (SAD) patients. Cells were treated with 1 μM cinnamycin for 10 min at 37° C., and viabitlity was monitored by Live/Dead assay.
# PS-mutant MEFs = test: Cinnamycin sensitivity, live/dead assay in MEFs; assay type: cell-based, mouse; details: PS-mutant MEFs vs. control MEFs; 1 μM cinnamycin for 10 min at 37° C., live/dead assay (FIG. 41D)
# Method: FIG. 41. Phospholipid synthesis in MEFs. FIG. 41A: Synthesis of PtdSer and PtdEtn after 3H-Ser labeling for the indicated times (hours) (n=3). FIG. 41B: Pulse-chase. MEFs labeled for 1 h with 3H-Ser; chase with cold Ser (n=3). FIG. 41C: Phospholipid synthesis in crude mitochondria (n=3 or 4) Error bars, SE; p<0.05. FIG. 41D: Cinnamycin sensitivity in MEFs. Left: Live/dead assay (1 μM cinnamycin for 10 min at 37° C.). Right: Cinnamycin-sensitivity assay (10 min at 37° C.).
# AD patients have aberrant phospholipid profiles, both in fibroblasts and in brain (Pettegrew et al., (2001) Neurochem. Res. 26, 771-782; Murphy et al., (2006) Brain Res. Bull. 69, 79-85). PtdSer and PtdEtn are exported to the inner leaflet of the plasma membrane (Vance (2008) J. Lipid Res. 49, 1377-1387). […] Both the 3H-Ser and cinnamycin results are relevant to the pathogenesis of AD.
# Cinnamycin sensitivity assays. To measure cinnamycin binding (Emoto et al. (1999) Proc. Natl. Acad. Sci. USA 96:12400-12405), cells are incubated with 125I-labeled streptavidin complexed with cinnamycin (Ro 09-0198) peptide complex (1251-SA-Cin; 50,000 cpm/ml; Sigma) for 1 h at 39.5° C. The radioactivities of 125I-SA-Cin bound to the cells is analyzed by bioimage analyzer. […] Viability will be measured by “live/dead” assay (Molecular Probes).
# GSK3B = GSK3B (Homo sapiens, UniProt P49841); details: cited from earlier work
# neuroblastoma cells = details: cited from earlier work
# Sequence of GSK3B (P49841 whole entry, species assumed): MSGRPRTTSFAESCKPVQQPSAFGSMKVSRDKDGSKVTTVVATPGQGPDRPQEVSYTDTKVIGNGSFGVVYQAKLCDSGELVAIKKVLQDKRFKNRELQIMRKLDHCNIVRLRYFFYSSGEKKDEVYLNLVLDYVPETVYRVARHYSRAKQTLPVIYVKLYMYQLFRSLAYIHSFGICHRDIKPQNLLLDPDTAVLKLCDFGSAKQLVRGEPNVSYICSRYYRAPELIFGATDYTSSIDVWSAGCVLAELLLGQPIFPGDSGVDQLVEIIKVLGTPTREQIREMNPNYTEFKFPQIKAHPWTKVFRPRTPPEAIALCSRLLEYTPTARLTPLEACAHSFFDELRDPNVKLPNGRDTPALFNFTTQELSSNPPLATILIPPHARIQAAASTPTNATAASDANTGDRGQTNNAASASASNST
molecule,measurement,setting,value
cinnamycin,CC50,human erythrocytes,~1 mM
same,Cinnamycin sensitivity (viability by Live/Dead assay),[1],cinnamycin sensitivity in the SAD patients
same,Sensitivity to cinnamycin vs. controls,PS-mutant MEFs,more sensitive
Cn1sc(=O)n(Cc2ccccc2)c1=O [TDZD-8],Effect on GSK3B activity,GSK3B,inhibit GSK3B activity
O=C1NC(=O)C(c2ccccc2[N+](=O)[O-])=C1Nc1ccc(O)c(Cl)c1 [SB415286],Effect on neurite outgrowth,neuroblastoma cells,inhibit neurite outgrowth
